In patent US8916540B2, “Antibiotic compositions and related screening methods” (Academia Sinica, priority 2008, dated 2014):
Where two headings read alike, the source gives them in different places.

Experiments:
Escherichia coli = assay: Minimal inhibitory concentration (MIC) determination; format: cell-based
Enterococcus faecium = conditions: literature citation 10; cited from earlier work
Pseudomonas aeruginosa = conditions: literature citation 28; cited from earlier work
[1] = target: PBP2a from Enterococcus faecalis; assay: Fluorescence anisotropy direct binding assay; conditions: FA direct binding, 100 nM F-Moe, 10 mM Tris pH 8.0, 100 mM NaCl; read-out: FA_KD
Method: Fluorescence anisotropy measurements were carried out in triplicates in the wells of 384-well plates using a laser fluorimetry equipped with a 488 nm laser (IsoCyte, Blueshift Biotech, Inc., Sunnyvale, Calif., USA). Various buffers, salts, pH values, and divalent cations (Ca^++, Mg^++, Co^++) were optimized for fluorescence anisotropy measurements. […] The scanning focus was above the plate bottom to avoid detection interferences. Data analysis was performed with the proprietary software, BlueImage (Blueshift Biotech Inc). Fluorescence anisotropy values (A) were calculated using the equation: A=(/∥−G*/⊥)/(/∥+2G*/⊥), where /∥ is the fluorescence intensity of emitted light parallel to excitation, /⊥ is the fluorescence intensity of emitted light perpendicular to excitation, and G is the […] that corrects for instrument bias. The G factor is experimentally determined for each run using the probe-only well as the basal an isotropy.
For direct binding assay, the initial condition contained 40 μl of 100 nM F-Moe in 10 mM Tris, pH 8.0, 100 mM NaCl. After a small volume of PBP stock was added, the anisotropy change was measured after a 5-minute equilibration. We assume that the direct titration follows a simple binding equilibrium between Ligand (L) and Receptor (R)
[formula] […]

Helicobacter pylori = conditions: literature citation 29; cited from earlier work
Enterococcus faecalis = assay: Minimal inhibitory concentration (MIC) determination; format: cell-based
Method: (§1) The minimal inhibitory concentration (MIC) of tested compounds was determined following the NCCLS standard. The experiments were conducted in 96-well microtiter plates using two-fold dilutions in Muller-Hilton broth with (Streptococcus pneumonia) or without blood (Bacillus subtilis, Enterococcus faecalis, Staphylococcus aureus). Exponentially growing cells at 5×10^5 cells/ml were incubated with test compounds at various concentrations.

Staphylococcus aureus = assay: as above; format: cell-based
Method: as §1

Streptococcus pneumoniae = assay: as above; format: cell-based
Method: as §1

Bacillus subtilis = assay: as above; format: cell-based
Method: as §1

Bordetella pertussis = assay: as above; format: cell-based

Moenomycin A [Compound 1]
MIC (Escherichia coli): 80 µM | Reported values MIC (Enterococcus faecium): >40.5 µM | Reported values MIC (Pseudomonas aeruginosa): 55 to 110 µM | Kd [1]: 276 ± 14 nM | Reported values MIC (Helicobacter pylori): 1.3 µM | MIC (Enterococcus faecalis; E. faecalis ATCC29212, Muller-Hilton broth, 18 h to 24 h, 37° C., read-out: MIC E. faecalis (ATCC29212)): 0.04 µM | MIC (Enterococcus faecalis; Enterococcus faecalis (Table 1)): 0.075 to 0.3 µM | MIC (Staphylococcus aureus; S. aureus ATCC29213, Muller-Hilton broth, 18 h to 24 h, 37° C., read-out: MIC S. aureus (ATCC29213)): <0.01 µM | MIC (Staphylococcus aureus; Staphylococcus aureus (Table 1)): 0.075 µM | MIC (Streptococcus pneumoniae; S. pneumoniae ATCC49619, Muller-Hilton broth with blood, 18 h to 24 h, 37° C., read-out: MIC S. pneumoniae (ATCC49619)): 0.33 µM | MIC (Streptococcus pneumoniae; Streptococcus pneumoniae (Table 1)): 0.625 µM | MIC (Bacillus subtilis; B. subtilis ATCC23857, Muller-Hilton broth, 18 h to 24 h, 37° C., read-out: MIC B. subtilis (ATCC23857)): 0.33 µM | MIC (Bacillus subtilis; Bacillus subtilis (Table 1)): 0.3 to 0.6 µM | MIC (Bordetella pertussis): 0.011 to 0.021 µM
